Measurements: patent publication US9291621B2, “AGER-peptides and use thereof” (AbbVie Deutschland GmbH & Co. KG, priority 2005, dated 2016)

Tests used:
[1] = test system: hippocampal sections (CA1 region); assay: Excitatory synaptic transmission and long-term potentiation in hippocampal sections; assay type: cell-based, male Wistar rats; details: for effect on short-term and long-term potentiation: theta burst stimulation, p=0.016 (NtermR31), p=0.794 (scraNtermR31), repeated measures ANOVA
Experimental: 400 μm-thick transverse hippocampal sections from 7-8-week-old male Wistar rats (Harlan Winkelmann, Bochum, Germany) were prepared using a tissue chopper and equilibrated for at least 1 hour at 33° C. in Carbogen-gassed artificial cerebrospinal fluid (aCSF) of the following composition: NaCl 124 mM; KCl 4.9 mM; MgSO4 1.3 mM; CaCl2 2.5 mM; KH2PO4 1.2 mM; NaHCO3 25.6 mM; glucose 10 mM; pH 7.4. Recordings were made from the section immersed in Carbogen-gassed artificial cerebrospinal fluid (aCSF) of the same composition.
Stimulation of the Schaffer collaterals took place in the stratum radiatum using a monopolar stimulating electrode with biphasic pulse (voltage range 1-5 V). Excitatory post-synaptic potentials (EPSPs) were recorded in the stratum radiatum using aCSF-filled glass electrodes against a chlorinated silver reference electrode (bath). These reflect in particular the strength of the glutamatergic synaptic transmission.
The values were determined from the gradient of the field EPSPs recorded every 5 min for a period of 120 minutes before and 120 minutes after LTP induction. LTP was induced by so-called theta burst stimulation (4×2 pulses at an interval of 200 ms with a double-pulse interval of 10 ms). […]

[2] = target: T1, sRAGE-6×HIS (amino acids 23-352, NP_001127) (Homo sapiens, UniProt Q15109); assay: AlphaScreen measurement of peptide binding to sRAGE; details: for binding to the receptor (AlphaScreen): biotinylated control peptides 0, 10, 30, 100, 300 nM
T1 construct: fusion protein sRAGE-6×HIS (amino acids 23-352, NP_001127); made in house
T1 sequence (Q15109 with tags, fused parts or gaps): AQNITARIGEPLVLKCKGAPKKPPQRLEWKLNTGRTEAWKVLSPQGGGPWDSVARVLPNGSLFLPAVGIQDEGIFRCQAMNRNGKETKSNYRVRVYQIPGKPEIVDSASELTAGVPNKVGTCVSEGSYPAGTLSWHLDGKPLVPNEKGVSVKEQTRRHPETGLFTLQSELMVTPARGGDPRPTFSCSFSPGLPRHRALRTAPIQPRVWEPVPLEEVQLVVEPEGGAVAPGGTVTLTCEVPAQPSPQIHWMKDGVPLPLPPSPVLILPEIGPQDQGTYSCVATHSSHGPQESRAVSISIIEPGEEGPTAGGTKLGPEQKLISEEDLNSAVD
Experimental: The entire homogeneous assay was carried out in 25 mM HEPES, 100 mM NaCl of pH 7.4 and 0.1% BSA in a volume of 20 μl.
(§1) The individual components were brought together in a defined time sequence. […] The various amounts of peptide were then added in order, after a further 30 minutes, to add the donor beads. After a further 60 minutes, the fluorescence was measured in the AlphaQuest instrument from Perkin-Elmer with a time lag of one second. Each measured point was determined as triplicate. The analysis and graphical workup of the results took place with the GraphPrism 4.0 software package.
The binding to the RAGE receptor was measured by employing the AlphaScreen™ System (order number: 6760610M) from Perkin Elmer (Shelton, Conn., USA).
The assay was carried out by the manufacturer's protocol in 25 mM HEPES, 100 mM NaCl of pH 7.4 and 0.1% BSA in a volume of 20 μl. The mixture comprised 2.5 ng/μl of the fusion protein sRAGE-6×HIS (amino acids 23-352, NP_001127), 20 ng/μl anti-HIS acceptor beads, 20 ng/μl streptavidin donor beads and the biotinylated peptides in concentrations of 0, 10, 30, 100, and 300 nM. The peptides, with the exception of AR 1-42 oligomers, were heated at 50° C. for 10 minutes immediately before the test in order to loosen possible aggregations.
as §1, with “evaluation” for “analysis”

[3] = target: sRAGE/Aβ globulomer interaction (Homo sapiens, UniProt P05067); details: for inhibition of Aβ oligomer binding to sRAGE: increasing peptide concentrations, Aβ 1/5 biotin globulomer 800 nM
Chain of sRAGE/Aβ globulomer interaction (P05067 672-713 limits assumed): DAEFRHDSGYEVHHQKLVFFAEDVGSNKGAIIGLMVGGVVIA
Experimental: The HTRF donor and acceptor components, Anti6HIS europium cryptate (CIS Bio catalogue number: 61HISKLA; 500 wells/13 μg) and streptavidin XL-665 (CIS Bio catalogue number: 61HISAXLA, 500 wells/250 μg) were each dissolved in 250 μl of dd H2O, Starting from these stock solutions, 1:50 working dilutions were prepared with a final concentration of 7.4 nM Anti6His cryptates and 121.2 nM streptavidin XL-665 in PBS, 0.1% BSA, pH 7.4.
Working solutions of peptides 6 and 7 were prepared with concentrations of 200 μM, 100 μM, 50 μM, 25 μM, 12.5 μM, 6.25 μM, 3.125 μM, 1.56 μM and 0.78 μM.
To carry out the tests, initially 4 μl of the working solutions of each of peptides 6 and 7, and of a buffer control, were mixed with 4 μl of a 4 μM stock solution of the Aβ 1/5 biotin globulomer (final assay concentration 800 nM) and incubated at room temperature for one hour. The A beta 1/5 biotin globulomer concentration indicated here is based on the Aβ 1-42 monomers which were used to prepare the globulomers.
2 μl portions of the 7.4 nM Anti6His cryptates and of the 121.2 nM streptavidin solution described above were added in order then to incubate this mixture, now at 4° C., for a further two hours. After addition of 4 μl of a 2M KF stock solution, the complete mixture was measured in a BMG Pherastar fluorescence measuring instrument (BMG Labtech GmbH, Offenburg, Germany) in HTRF mode. Separate measurements without peptide were carried out for the max-signal curve. For the background curve, measurements were used with in each case only the AntiGHIS cryptates and strepavidin XL solutions. The calculated % DeltaF values were transferred into GraphPad Prism 4 (GraphPad Software, San Diego, USA) and evaluated. The concentrations indicated in the graphs are based on the final concentration of the complete 20 μl mixture.

[4] = test system: HEK293 RhoA/NgR/p75 cells; assay: Functional actin cytoskeletal rearrangement (ACR) assay; assay type: cell-based, human; details: preincubation 0.2, 1, 5 μM; stimulation with AP-Nogo-66 (9.6 μg/ml)
Experimental: 1×10^4 cells were […] into microtiter plates with 96 wells two days before the stimulation. The cells were stimulated with a suitable reagent (e.g. LPA or AP-Nogo-66) in culture medium (RPMI-Glutamax) comprising 5% FCS. After a stimulation period of 5 to 10 minutes, the activation was stopped with cold PBS. The cells were fixed with 3-4% strength paraformaldehyde solution, permeabilized with PBS comprising 0.2% Triton X-100, and incubated with phalloidin Alexa 568 or 488 for 30-45 minutes. Incubation with DAPI additionally took place for 5 minutes for nuclear staining. The cells were visualized with the aid of an epifluorescence microscope (Axiovert 25).
1×10^4 Hek293 RhoA/NgR/p75 cells were transferred into MTP Biocoat microtiter plates with 96 wells two days before the actual start of the test. […] The cells were stimulated with the NgR ligand AP-Nogo-66 (9.6 μg/ml) in culture medium comprising 5% FCS. An unstimulated control mixture (without AP-Nogo66) was prepared for each series of tests. After a stimulation period of 5 to 10 minutes, the activation was stopped with cold PBS. […] were recorded with a cooled CCD camera from Zeiss, and the percentage content of contracted cells, based on the total cell count, was found.

[5] = biotinylated control peptides 0-300 nM

## APLACPRELIKGKWEVKPKRNPKNQLTIGQL [ScraNtermR31]
[1]; 500 nM
  effect on short-term and long-term potentiation: no effect

## E T E D S D T [Minus7]
[2]
  binding to the receptor (AlphaScreen): no bonding

## F P V I P A L F W I V L M [Unpol13]
[2]
  binding to the receptor (AlphaScreen): no bonding

## F S R I R A T H W R V D G [AlterCharge1]
[2]
  binding to the receptor (AlphaScreen): binding

## GKPRAPKCLKPEQ [ScraNtermR13]
[2]; [5]
  affinity to sRAGE compared with NtermR13: same or slightly higher affinity
  maximum signal intensity in the test: highest maximum signal intensity

## LPRHRALRTAPIQPRVWEPVPLEEVQLVVE [peptide 7]
[3]
  inhibitory activity, peptide 7 compared with peptide 6: more pronounced
  inhibition of Aβ oligomer binding to sRAGE: Inhibition

## QNITARIGEPLVLKCKGAPKKPPQRLEWKLN [NtermR31]
[4]
  percentage content of contracted HEK cells: concentration-dependent reduction
[1]; 500 nM
  input/output ratio: unaffected
  effect on short-term and long-term potentiation: distinctly suppresses
[1]; application for 90 minutes
  effect on basal synaptic transmission: no effect

## R L K R G H A [Plus7]
[2]; [5]
  maximum signal intensity in the test: highest maximum signal intensity

## TLQSELMVTPARGGDPRPTFSCSFSPGLPR [peptide 6]
[3]
  inhibition of Aβ oligomer binding to sRAGE: Inhibition
